Columns and labels:
Type in all cases: biochemical
[1] = test system: miR-17; assay: Ribonuclease activity assay, cleavage of miR-17; conditions: miRNA 1 µM, DC 20 µM, 37 °C
Experimental: (§1) The ribonuclease activity of DCs was studied under two different buffer conditions: buffer (1) contained 50 mM Tris-HCl, pH 7.0, 200 mM KCl, 1 mM EDTA, which imitates intracellular conditions (e.g., pH and potassium ions concentration) and was used in a number of studies previously; and buffer (2) contained 20 mM Tris-HCl, pH 7.8, 40 mM KCl, 8 mM MgCl2, 1 mM DTT, 0.02 mg/mL BSA, which is recommended for in vitro reactions with RNase H (Figure 3 and Figure 4).
(§2) Figure 3 Kinetics of cleavage of 5′-[^32P]-labeled miR-17, miR-18a, miR-155, miR-21 and miR-21_1 by corresponding DCs in the buffer (1), containing 50 mM Tris-HCl, pH 7.0, 200 mM KCl and 1 mM EDTA. (a–e) Radioautographs of 18% denaturing PAAG showing the cleavage products of miR-17, miR-18a, miR-155, miR-21 and miR-21_1, respectively. miRNA (1 µM) and corresponding DC (20 µM) were incubated at 37 °C for 72 h. Lanes Im and T1—imidazole ladder and partial RNA digestion with RNase T1, respectively; control–miRNA was incubated in the absence of the conjugate. The incubation time (in hours) is show at the top. SS gap–single-stranded region of miRNA formed upon hybridization with DC; (f) Kinetics of miRNAs cleavage by DCs depending on the incubation time. Data are presented as mean ± s.e.
(§3) Figure 4 Kinetics of cleavage of 5′-[^32P]-labeled miR-17, miR-18a, miR-155, miR-21, and miR-21_1 by corresponding DCs in the buffer (2), containing 20 mM Tris-HCl, pH 7.8, 40 mM KCl, 8 mM MgCl2, 1 mM DTT, 0.02 mg/mL BSA. (a–e) Radioautographs of 18% denaturing PAAG showing the cleavage products of miR-17, miR-18a, miR-155, miR-21 and miR-21_1, respectively. miRNA (1 µM) and corresponding DC (20 µM) were incubated at 37 °C for 72 h. Lanes Im and T1–imidazole ladder and partial RNA digestion with RNase T1, respectively; control–miRNA was incubated in the absence of the conjugate. The incubation time (in hours) is shown at the top. SS gap–single-stranded region of miRNA formed upon hybridization with DC; (f) Kinetics of miRNAs cleavage by DCs. Data are presented as mean ± s.e.
(§4) The reaction mixture (10 µL) contained 800 cpm (Cherenkov’s counting) of [^32P]-miRNA, 1 μM unlabeled miRNA, one of the conjugates at a concentration 10 or 20 μM and one of the buffers: 50 mM Tris-HCl, pH 7.0, 200 mM KCl, 1 mM EDTA–buffer (1) or 20 mM Tris-HCl, pH 7.8, 40 mM KCl, 8 mM MgCl2, 1 mM DTT, 0.02 mg/mL BSA–buffer (2). The mixture was incubated at 37 °C for 0–72 h and quenched by precipitation of RNA with 2% LiClO4 in acetone (90 µL). RNA was collected by centrifugation and dissolved in loading buffer (8 M urea, 0.025% bromophenol blue, 0.025% xylene cyanol). RNA cleavage products were analyzed in 18% PAAG/8M urea using TBE (100 mM Tris-borate, pH 8.3, 2 mM EDTA) as running buffer. To identify cleavage sites, an imidazole and T1-ladders produced by partial RNA cleavage with 2 M imidazole buffer (pH 7.0) and with RNase T1 [68], respectively, were run in parallel. To obtain quantitative data, gels were dried and analyzed using Molecular Imager FX. The total extent of RNA cleavage and the extent of RNA cleavage at each individual site were determined by using Quantity One software v.4.1 (Bio-Rad, Hercules, CA, USA).

[2] = test system: miR-17; assay: Ribonuclease activity assay at different concentrations of KCl; conditions: miRNA 1 µM, DC 20 µM, 37 °C, 48 h; for Cleavage: 20 mM Tris-HCl pH 7.8, 8 mM MgCl2, 1 mM DTT, 0.02 mg/mL BSA, mean ± s.e.
Experimental: Potassium ions play an important role in the regulation of cell homeostasis by maintaining the membrane potential, cell volume and pH, and may also have an influence on the performance of artificial ribonucleases. […] In order to understand the effect of K^+ ions on the efficiency of miRNA cleavage by DCs, miR-17 was incubated with the matching DC in the buffer containing 50 mM Tris-HCl, pH 7.0, 1 mM DTT, 0.02 mg/mL BSA and different K^+ concentration varied from 0 to 400 mM. […] In the absence of potassium and at a concentration of more than 200 mM, the efficiency of miRNA cleavage was 2-fold reduced.
Reaction with different concentration of KCl was performed in reaction mixtures (8 µL) containing 320 cpm (Cherenkov’s counting) of [^32P]-miR-17, 1 μM unlabeled miRNA, 20 µM of miRNA-17-DC in buffers contained 20 mM Tris-HCl, pH 7.8, 8 mM MgCl2, 1 mM DTT, 0.02 mg/mL BSA, and KCl at concentration 0, 40, 100, 200 or 400 mM at 37 °C for 48 h. RNA cleavage products were collected and analyzed as described above.

[3] = test system: miR-155; assay: Ribonuclease activity assay, cleavage of miR-155; conditions: miRNA 1 µM, DC 20 µM, 37 °C
Experimental: as §1, §2, §3, §4

[4] = buffer (1) 50 mM Tris-HCl pH 7.0, 200 mM KCl, 1 mM EDTA, 2 h
[5] = buffer (1) 50 mM Tris-HCl pH 7.0, 200 mM KCl, 1 mM EDTA, 6 h
[6] = buffer (1) 50 mM Tris-HCl pH 7.0, 200 mM KCl, 1 mM EDTA, 24 h
[7] = buffer (1) 50 mM Tris-HCl pH 7.0, 200 mM KCl, 1 mM EDTA, 48 h
[8] = buffer (1) 50 mM Tris-HCl pH 7.0, 200 mM KCl, 1 mM EDTA, 72 h
[9] = buffer (2) 20 mM Tris-HCl pH 7.8, 40 mM KCl, 8 mM MgCl2, 1 mM DTT, 0.02 mg/mL BSA, 2 h
[10] = buffer (2) 20 mM Tris-HCl pH 7.8, 40 mM KCl, 8 mM MgCl2, 1 mM DTT, 0.02 mg/mL BSA, 6 h
[11] = buffer (2) 20 mM Tris-HCl pH 7.8, 40 mM KCl, 8 mM MgCl2, 1 mM DTT, 0.02 mg/mL BSA, 24 h
[12] = buffer (2) 20 mM Tris-HCl pH 7.8, 40 mM KCl, 8 mM MgCl2, 1 mM DTT, 0.02 mg/mL BSA, 48 h
[13] = buffer (2) 20 mM Tris-HCl pH 7.8, 40 mM KCl, 8 mM MgCl2, 1 mM DTT, 0.02 mg/mL BSA, 72 h

CTACCTGC–linker 1–[GRLRL]2–linker 2–AAGCACTTTG [miRNA-17-DC, Dual oligonucleotide-peptide conjugate targeted to miR-17: catalytic peptide [LRLRG]2 between two 2-aminoadenine-containing oligodeoxyribonucleotides]
Total Cleavage [1, 4]: 0%
Total Cleavage [1, 5]: 0%
Total Cleavage [1, 6]: 1%
Total Cleavage [1, 7]: 2%
Total Cleavage [1, 8]: 5%
Total Cleavage [1, 9]: 1,5%
Total Cleavage [1, 10]: 4%
Total Cleavage [1, 11]: 18%
Total Cleavage [1, 12]: 32%
Total Cleavage [1, 13]: 40%
rise of Kobs in buffer (2) compared to Kobs in buffer (1) [1]: 10 fold
Cleavage ([2]; K+ 0 mM): 13.2±5.0%
Cleavage ([2]; K+ 40 mM): 22.5±4.3%
Cleavage ([2]; K+ 100 mM): 26.4±2.0%
Cleavage ([2]; K+ 200 mM): 13.7±3.5%
Cleavage ([2]; K+ 400 mM): 14.1±3.8%
most potent degradation of miRNA-target ([2]; at 40–100 mM KCl): approximately 25%

ACCCCTAT–linker 1–[GRLRL]2–linker 2–TTAGCATTAA [miRNA-155-DC, Dual oligonucleotide-peptide conjugate targeted to miR-155: catalytic peptide [LRLRG]2 between two 2-aminoadenine-containing oligodeoxyribonucleotides]
Total Cleavage [3, 4]: 0%
Total Cleavage [3, 5]: 0%
Total Cleavage [3, 6]: 0,5%
Total Cleavage [3, 7]: 16%
Total Cleavage [3, 8]: 21%
Total Cleavage [3, 9]: 15%
Total Cleavage [3, 10]: 41%
Total Cleavage [3, 11]: 56%
Total Cleavage [3, 12]: 57%
Total Cleavage [3, 13]: 72%
rise of Kobs in buffer (2) compared to Kobs in buffer (1) [3]: 6 fold

From PMC7287882, “Dual miRNases for Triple Incision of miRNA Target: Design Concept and Catalytic Performance” (Molecules, 2020)
